From ChEMBL document CHEMBL1157922, “Design of new dopamine D2 receptor ligands: biosynthesis and pharmacological evaluation of the hydroxylated metabolite of LASSBio-581” (Bioorg Med Chem Lett, 2010)

Key:
[1] = Displacement of [3H]YM-9151-2 from D2 like receptor in rat striatal membrane; type: cell membranes, Striatum
[2] = target: 5-hydroxytryptamine receptor 2A (Rattus norvegicus, UniProt P14842); assay: Displacement of [3H]ketanserin from 5HT2A receptor in rat cortex membrane; type: cell membranes
Chain of 5-hydroxytryptamine receptor 2A (P14842 whole entry): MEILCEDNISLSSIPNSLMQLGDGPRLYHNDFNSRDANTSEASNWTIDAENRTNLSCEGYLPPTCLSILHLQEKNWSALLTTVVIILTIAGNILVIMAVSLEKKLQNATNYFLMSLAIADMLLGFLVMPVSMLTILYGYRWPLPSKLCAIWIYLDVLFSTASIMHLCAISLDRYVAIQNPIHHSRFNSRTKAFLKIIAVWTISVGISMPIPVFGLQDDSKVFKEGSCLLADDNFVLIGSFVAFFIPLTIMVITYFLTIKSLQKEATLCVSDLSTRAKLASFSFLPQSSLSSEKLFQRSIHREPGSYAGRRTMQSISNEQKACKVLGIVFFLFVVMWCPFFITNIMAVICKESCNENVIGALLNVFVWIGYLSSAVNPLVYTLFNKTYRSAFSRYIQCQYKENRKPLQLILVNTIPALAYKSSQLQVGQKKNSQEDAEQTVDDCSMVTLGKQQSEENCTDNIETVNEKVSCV

Work on `Clc1ccc(-n2cc(CN3CCN(c4ccccc4)CC3)nn2)cc1` yielded a Ki [1] of 0.95 µM and a Ki [2] of 11 µM.

Work on `Oc1ccc(N2CCN(Cc3cn(-c4ccc(Cl)cc4)nn3)CC2)cc1` yielded a Ki [1] of 1.7 µM.
